Source: publication PMC7284125, “Identification of annotated bioactive molecules that impair motility of the blood fluke Schistosoma mansoni” (International Journal for Parasitology: Drugs and Drug …, 2020)
Where two headings read alike, the source gives them in different places.

How the values were obtained:
[1] = system: S. mansoni schistosomulae; test: Motility assay on schistosomulae (pixel displacement, relative to DMSO control); assay type: cell-based, Schistosoma mansoni; settings: for activity at 1 µM: Schistosoma mansoni, read-out: Fractional motility
Method: Puerto Rican strain Biomphalaria glabrata snails infected with S. mansoni were kindly provided by Dr. Fred Lewis (Biomedical Research Institute and BEI Resources, MD, USA). Schistosomulae were obtained by exposing six to eight weeks-old snails to continuous light for 2 h at 32 °C. The resulting suspension of cercaria was then mechanically transformed as described ([Lewis, 2001]) and cultured in Opti-MEM/antibiotics (Thermo Fisher Scientific, Waltham, MA) containing 100 μg/mL streptomycin and 100 units/ml penicillin supplemented with 5% fetal bovine serum (FBS; Thermo Fisher). Parasite cultures were incubated at 37 °C with 5% CO2 for at least 10 days with no apparent loss of viability. At this point, animals with internal dark granulations and with no observable body contraction/relaxation cycles were considered dead.
(§1) Schistosomulae (200/well) and adult parasites (unpaired worms) were maintained in 300 μL OPTI-MEM with 5% dialyzed FBS (without antibiotics) and exposed to compounds at 1 and 10 μM for 24 h. A kinetic assay consisting of 1, 3, 6 and 12 h incubation times was performed on selected hits by motility monitoring using a stereo microscope (SMZ1270, Nikon) for adults and an inverted microscope for schistosomulae (eclipse TE2000-U, Nikon) connected to a monochrome camera (DS-Qi2, Nikon) for image acquisition. Images were recorded at a rate of 10 frames/s for a period of 1 min and videos were analyzed using ImageJ software (version 1.41, NIH, USA). Parasite movement quantification and data analysis protocols were applied using the pixel displacement method ([Patocka et al., 2014]; [Rashid et al., 2015]) and compared to control parasites treated with DMSO. Parasites were then washed several times in Opti-MEM, 5% FBS and incubated up to an additional three days (schistosomulae) or five days (adult worms) at 37 °C, 5% CO2 and motility was recorded as described above.

[2] = system: S. mansoni adult worms; test: Motility assay on adult parasites (pixel displacement, relative to DMSO control); assay type: cell-based, Schistosoma mansoni; settings: secondary screen, 10 μM
Method: Adult parasites were collected from 40 day-old female CD1 mice (Charles River) previously inoculated by the tail infection method ([Lewis, 2001]). Six weeks post-infection, mice were sacrificed, and adult worms extracted after perfusion of in the hepatic portal vein and mesenteric venules ([Lewis, 2001]). Animal procedures were reviewed and approved by the Facility Animal Care Committee of McGill University (Protocol No. 3346) and were conducted in accordance with the guidelines of the Canadian Council on Animal Care.
as §1

[3] = system: S. mansoni schistosomulae; test: Phenotypic primary screen assay on schistosomulae (phenotype; viability by methylene blue dye exclusion); assay type: cell-based, Schistosoma mansoni; settings: three-day-old schistosomulae, 10 μM, 24 h; estimated 5 days post compound exposure
Method: Puerto Rican strain Biomphalaria glabrata snails infected with S. mansoni were kindly provided by Dr. Fred Lewis (Biomedical Research Institute and BEI Resources, MD, USA). Schistosomulae were obtained by exposing six to eight weeks-old snails to continuous light for 2 h at 32 °C. […] At this point, animals with internal dark granulations and with no observable body contraction/relaxation cycles were considered dead.
Schistosomulae were monitored under a stereo microscope (SMZ1270, Nikon). Phenotypic observations were made by analyzing schistosomulae, 24 h after drug addition to assess any immediate effect and five days post-compound exposure to observe long-term impacts on both the movement and overall body shape in comparison to control animals exposed to DMSO only.

[4] = system: S. mansoni schistosomulae; test: as above; assay type: cell-based; settings: Schistosoma mansoni; three-day-old schistosomulae, 10 μM, 24 h; calculated 5 days post compound exposure; read-out: Viability (%)
[5] = 120 h, schistosomulae, secondary screen, 24h exposure, read at D5, 1 µM
[6] = schistosomulae, secondary screen, 24h exposure, read at D1, 1 µM
[7] = schistosomulae, secondary screen, 24h exposure, read at D1, 10 µM
[8] = schistosomulae, secondary screen, 24h exposure, read at D5, 10 µM

| motility in extended assay with reduced incubation times, in words ([1]; three-day old schistosomulae, incubation 1 h, 3 h, 6 h) | SMILES | activity at 1 µM [1, 5] | activity at 1 µM [1, 6] | Fractional motility [1, 7] | Fractional motility [1, 8] | Fractional motility ([2]; D1, Female adult worms) | Fractional motility ([2]; D1, Male adult worms) | Fractional motility ([2]; D5, Female adult worms) | Fractional motility ([2]; D5, Male adult worms) | Phenotype [3] | viability at 10 µM [4] | Fractional motility ([1]; schistosomulae, 1h exposure, read at D1, 10 µM) | Fractional motility ([1]; schistosomulae, 1h exposure, read at D5, 10 µM) | Fractional motility ([1]; schistosomulae, 3h exposure, read at D1, 10 µM) | Fractional motility ([1]; schistosomulae, 3h exposure, read at D5, 10 µM) | Fractional motility ([1]; schistosomulae, 6h exposure, read at D1, 10 µM) | Fractional motility ([1]; schistosomulae, 6h exposure, read at D5, 10 µM) | activity at 1 µM ([1]; 24 h) | activity at 1 µM ([1]; 120 h) |
| --- | --- | --- | --- | --- | --- | --- | --- | --- | --- | --- | --- | --- | --- | --- | --- | --- | --- | --- | --- |
|  | COCCCN1CCC(NC(=O)c2cc(Cl)c(N)c3c2OCC3)CC1 [Prucalopride] | -11% | 121% | 6.36 | -0.28 | -0.26 | 0.72 | -0.27 | 0.34 | elongated | 96% |  |  |  |  |  |  |  |  |
| significant and sustained hypomotility | COCCn1c2c([n+](Cc3cnccn3)c1C)C(=O)c1ccccc1C2=O [YM155] | -82% | -73% | -0.91 | -1.00 | 0.22 | 1.90 | -0.79 | 0.70 | big, granulated | 40% | -0.48 | -0.85 | -0.70 | -0.96 | 1.86 | -1.00 |  |  |
|  | Cc1ccc(C(=O)N(CCCN)[C@@H](c2oc3cc(Cl)ccc3c(=O)c2Cc2ccccc2)C(C)C)cc1 [SB743921] | 17% | 74% | 1.32 | -0.89 | 1.14 | 1.48 | -0.87 | 0.0641 | big, dark | 70% |  |  |  |  |  |  |  |  |
|  | CC(C)(C)c1cc(NC(=O)Nc2ccc(-c3cn4c(n3)sc3cc(OCCN5CCOCC5)ccc34)cc2)no1 [Quizartinib] | -2.37% |  |  | -0.36 | 0.64 | 4.64 | -0.59 | -0.09 | granulated | 54% |  |  |  |  |  |  |  |  |
|  | CCCN1C[C@H](CSC)C[C@@H]2c3cccc4[nH]cc(c34)C[C@H]21 [Pergolide] | -25% | 139% | 18.64 | -0.34 | 0.25 | 2.14 | -0.82 | -0.30 | big, round | 99% |  |  |  |  |  |  |  |  |
|  | CN(C)CCC[C@@]1(c2ccc(F)cc2)OCc2cc(C#N)ccc21 [Escitalopram] | 16% | 361% | 5.42 | 0.71 | 2.54 | 6.67 | 0.95 | 0.26 | abnormal morphology | 98% |  |  |  |  |  |  |  |  |
|  | O=C(O[C@H]1CN2CCC1CC2)N1CCc2ccccc2[C@@H]1c1ccccc1 [Solifenacin] |  |  | 1.46 | 0.44 | 1.59 | 2.65 | -0.55 | 0.28 | elongated, granulated, blebbing | 96.5% |  |  |  |  |  |  | -30% | -59% |
